Test results: ChEMBL document CHEMBL3124753, “Synthesis of 2-amino-3-cyano-4H-chromen-4-ylphosphonates and their anticancer properties” (2014)

Tests used:
Format in all cases: functional
A549 [1] = test: Growth inhibition of human A549 cells at 20 uM after 24 hrs by MTT assay relative to control; settings: A549, 24 h, read-out: GI
KB [2] = test: Growth inhibition of human KB cells at 2 uM after 24 hrs by MTT assay relative to control; settings: read-out: GI
A549 [3] = test: Growth inhibition of human A549 cells at 4 uM after 24 hrs by MTT assay relative to control; settings: A549, 24 h, read-out: GI
A549 [4] = test: Growth inhibition of human A549 cells at 2 uM after 24 hrs by MTT assay relative to control; settings: A549, 24 h, read-out: GI
KB [5] = test: Growth inhibition of human KB cells at 40 uM after 24 hrs by MTT assay relative to control; settings: read-out: GI
A549 [6] = test: Growth inhibition of human A549 cells at 40 uM after 24 hrs by MTT assay relative to control; settings: A549, 24 h, read-out: GI
KB [7] = test: Growth inhibition of human KB cells at 20 uM after 24 hrs by MTT assay relative to control; settings: read-out: GI
KB [8] = test: Growth inhibition of human KB cells at 4 uM after 24 hrs by MTT assay relative to control; settings: read-out: GI

SMILES | inhibition of growth at 20 µM (A549 [1]) | inhibition of growth at 2 µM (KB [2]) | inhibition of growth at 4 µM (A549 [3]) | inhibition of growth at 2 µM (A549 [4]) | inhibition of growth at 40 µM (KB [5]) | inhibition of growth at 40 µM (A549 [6]) | inhibition of growth at 20 µM (KB [7]) | inhibition of growth at 4 µM (KB [8])
CCCCOP(=O)(OCCCC)C1C(C#N)=C(N)Oc2ccc([N+](=O)[O-])cc21 (stereo unspecified) | 7.94% | 0.58% | 8.21% | 6.3% | 33.8% | 15.8% | 14.5% | 6%
CCCCOP(=O)(OCCCC)C1C(C#N)=C(N)Oc2ccccc21 (stereo unspecified) | 21.7% | 6.45% | 7.82% | 3.51% | 40.4% | 30.2% | 17.6% | 6.8%
CCCCOP(=O)(OCCCC)C1C(C#N)=C(N)Oc2c1cccc2C(C)(C)C (stereo unspecified) | 11.2% | 11.2% | 10.5% | 9.5% | 19.8% | 13.7% | 14.5% | 13.9%
CC(C)OP(=O)(OC(C)C)C1C(C#N)=C(N)Oc2ccccc21 (stereo unspecified) | 3.5% | 2.5% | 1.2% | 0.82% | 9.22% | 5.47% | 8.93% | 5.21%
CC(C)OP(=O)(OC(C)C)C1C(C#N)=C(N)Oc2ccc([N+](=O)[O-])cc21 (stereo unspecified) | 16.8% | 6.07% | 6.25% | 2.5% | 23.3% | 26.9% | 16.2% | 8.5%
CCOP(=O)(OCC)C1C(C#N)=C(N)Oc2ccc([N+](=O)[O-])cc21 (stereo unspecified) | 3.1% | 4.5% | 2.89% | 0.33% | 8.29% | 3.9% | 6.18% | 6.08%
CC(C)OP(=O)(OC(C)C)C1C(C#N)=C(N)Oc2c1cccc2C(C)(C)C (stereo unspecified) | 13.9% | 5.5% | 8.23% | 3.1% | 20.6% | 14.9% | 12.5% | 6.5%
CCCCOP(=O)(OCCCC)C1C(C#N)=C(N)Oc2ccc(Br)cc21 (stereo unspecified) | 17.5% | 9.5% | 8.94% | 0.52% | 45.2% | 26.7% | 11.5% | 10.3%
CCOP(=O)(OCC)C1C(C#N)=C(N)Oc2ccccc21 (stereo unspecified) | 18.4% | 0.12% | 6.25% | 4.12% | 60.1% | 51% | 19.4% | 15.2%
CCOP(=O)(OCC)C1C(C#N)=C(N)Oc2ccc(Br)cc21 (stereo unspecified) | 20.3% | 6.8% | 9.05% | 0.52% | 81.8% | 60.8% | 12% | 10%
CCOP(=O)(OCC)C1C(C#N)=C(N)Oc2c1cccc2C(C)(C)C (stereo unspecified) | 12% | 5.65% | 4.34% | 3.72% | 27.3% | 14.9% | 11.5% | 7.4%
CC(C)OP(=O)(OC(C)C)C1C(C#N)=C(N)Oc2ccc(Br)cc21 (stereo unspecified) | 10.5% | 9.45% | 1.6% | 0.32% | 25.4% | 12.5% | 20.3% | 15%
